These results are taken from patent publication US10246429B2, “Vinyl fluoride cyclopropyl fused thiazin-2-amine compounds as beta-secretase inhibitors and methods of use” (AMGEN INC., priority 2015, dated 2019).

The target in test [1] is T1, BACE1 (Homo sapiens (Human), UniProt P56817). As to the kind of experiment: In vitro enzymatic BACE1 FRET assay. Type of test: biochemical. Conditions: read-out: IC50 IP (μM) BACE1 Enzyme.
Target sequence in this assay (P56817 46-501): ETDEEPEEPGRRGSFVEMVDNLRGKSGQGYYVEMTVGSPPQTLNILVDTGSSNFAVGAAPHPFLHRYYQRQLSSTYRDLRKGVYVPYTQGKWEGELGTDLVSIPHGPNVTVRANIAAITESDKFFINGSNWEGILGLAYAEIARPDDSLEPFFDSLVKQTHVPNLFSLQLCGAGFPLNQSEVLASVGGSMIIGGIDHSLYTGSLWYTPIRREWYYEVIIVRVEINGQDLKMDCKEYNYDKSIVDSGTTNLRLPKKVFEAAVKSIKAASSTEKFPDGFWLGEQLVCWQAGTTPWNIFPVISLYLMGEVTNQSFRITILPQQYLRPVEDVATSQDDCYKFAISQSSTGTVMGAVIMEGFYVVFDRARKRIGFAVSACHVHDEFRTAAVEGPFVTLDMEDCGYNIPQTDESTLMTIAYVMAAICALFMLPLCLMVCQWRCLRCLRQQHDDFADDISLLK
Text: (§1) In Vitro Enzymatic BACE1 and BACE2 FRET (Fluorescence Resonance Energy Transfer) Assays (Enzyme Assay Data in Table 1)
The target in test [2] is T1, BACE1. The test is described as follows: BACE1 cell assay. Type of test: cell-based.
Target sequence in this assay (P56817 46-501, species assumed): as the sequence (P56817 46-501) above
The next test deals with BACE2 (Homo sapiens (Human), UniProt Q9Y5Z0). The test is described as follows: In vitro enzymatic BACE2 FRET assay. Type of test: biochemical. Conditions: read-out: IC50 IP (μM) BACE2 Enzyme.
A further test concerns the target Cathepsin D (CatD) (Homo sapiens (Human), UniProt P07339). As to the kind of experiment: CatD assay. Type of test: biochemical. Conditions: read-out: IC50 IP (μM) CatD.
The mark [3] stands for this setting: read-out: IC50 IP (μM) BACE1 Cell.

The structures appear in SMILES notation.

Chain of BACE2 (Q9Y5Z0 63-518): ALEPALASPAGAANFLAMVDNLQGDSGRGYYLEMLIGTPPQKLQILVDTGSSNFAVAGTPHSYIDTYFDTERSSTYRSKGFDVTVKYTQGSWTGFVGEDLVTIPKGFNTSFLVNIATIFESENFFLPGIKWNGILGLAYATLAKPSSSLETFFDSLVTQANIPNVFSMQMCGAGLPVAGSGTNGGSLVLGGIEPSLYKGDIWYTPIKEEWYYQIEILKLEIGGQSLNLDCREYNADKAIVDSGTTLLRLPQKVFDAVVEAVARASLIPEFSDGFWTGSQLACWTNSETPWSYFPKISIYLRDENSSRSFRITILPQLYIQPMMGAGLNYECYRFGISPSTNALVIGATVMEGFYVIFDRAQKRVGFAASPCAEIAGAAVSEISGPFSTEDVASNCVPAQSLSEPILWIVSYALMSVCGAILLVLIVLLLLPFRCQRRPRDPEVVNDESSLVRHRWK
Chain of Cathepsin D (CatD) (P07339 65-412, species assumed): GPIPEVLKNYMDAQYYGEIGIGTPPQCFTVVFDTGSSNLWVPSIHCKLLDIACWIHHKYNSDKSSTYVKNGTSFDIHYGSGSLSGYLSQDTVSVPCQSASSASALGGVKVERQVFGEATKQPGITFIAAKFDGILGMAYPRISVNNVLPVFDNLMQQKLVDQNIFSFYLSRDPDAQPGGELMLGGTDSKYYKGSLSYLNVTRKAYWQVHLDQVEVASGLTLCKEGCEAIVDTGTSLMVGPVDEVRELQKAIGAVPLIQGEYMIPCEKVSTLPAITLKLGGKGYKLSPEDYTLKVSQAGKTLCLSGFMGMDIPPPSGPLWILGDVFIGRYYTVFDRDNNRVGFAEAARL
Text for BACE2: as §1

For `C[C@H]1CCN1C(=O)[C@]12C[C@H]1[C@@](C)(c1cc(/C=C(\F)c3ccc(Cl)cn3)ccc1F)N=C(N)S2` (single isomer, unassigned) [Example 119], the IC50 (in general, the concentration that inhibits the measured activity by half) is 0.0034 µM on BACE1 [1], 0.00406 µM on BACE1 [2] (setting [3]), 0.00752 µM at BACE2 and 42.3 µM at Cathepsin D (CatD).

In the case of `COC[C@]12C[C@H]1[C@@](CF)(c1cc(/C=C(\F)c3ccc(Cl)cn3)ccc1F)N=C(N)S2` [Example 100, (1S,5S,6S)-5-(5-((Z)-2-(5-chloropyridin-2-yl)-2-fluorovinyl)-2-fluorophenyl)-5-(fluoromethyl)-1-(methoxymethyl)-2-thia-4-azabicyclo[4.1.0]hept-3-en-3-amine], the IC50 at BACE1 [1] stood at 0.0228 µM; on BACE1 [2] (setting [3]), 0.26 µM; on BACE2, 0.0421 µM; on Cathepsin D (CatD) it was 933 µM.

For `COC[C@]12C[C@H]1[C@@](CF)(c1cc(/C=C(/F)c3ccc(Cl)cn3)ccc1F)N=C(N)S2` [Example 101, (1S,5S,6S)-5-(5-((E)-2-(5-chloropyridin-2-yl)-2-fluorovinyl)-2-fluorophenyl)-5-(fluoromethyl)-1-(methoxymethyl)-2-thia-4-azabicyclo[4.1.0]hept-3-en-3-amine], the IC50 stood at 0.303 µM at BACE1 [1], 1.6 µM at BACE1 [2] (setting [3]), 0.281 µM at BACE2 and 154 µM on Cathepsin D (CatD).

Take `COc1ccc(/C(F)=C/c2ccc(F)c([C@@]3(C)N=C(N)S[C@@]4(C(=O)N5CCCC5)C[C@H]43)c2)nc1` [Example 104, ((1S,5S,6S)-3-amino-5-(2-fluoro-5-((Z)-2-fluoro-2-(5-methoxypyridin-2-yl)vinyl)phenyl)-5-methyl-2-thia-4-azabicyclo[4.1.0]hept-3-en-1-yl)(pyrrolidin-1-yl)methanone]: the IC50 is 0.0226 µM at BACE1 [1], 0.0221 µM on BACE1 [2] (setting [3]), 0.144 µM on BACE2 and 185 µM on Cathepsin D (CatD).

For the compound `CN(C)C(=O)[C@]12C[C@H]1[C@@](C)(c1cc(/C=C(\F)c3ccc(Br)cn3)ccc1F)N=C(N)S2` [Example 108, (1S,5S,6S)-3-amino-5-(5-((Z)-2-(5-bromopyridin-2-yl)-2-fluorovinyl)-2-fluorophenyl)-N,N,5-trimethyl-2-thia-4-azabicyclo[4.1.0]hept-3-ene-1-carboxamide], the IC50 on BACE1 [1] turned out to be 0.00199 µM; on BACE1 [2] (setting [3]), 0.00853 µM; at BACE2, 0.00292 µM; on Cathepsin D (CatD), 519 µM.

In the case of `CN(C)C(=O)[C@]12C[C@H]1[C@@](C)(c1cc(/C=C(\F)c3ccc(C#CC4CC4)cn3)ccc1F)N=C(N)S2` [Example 109, (1S,5S,6S)-3-amino-5-(5-((Z)-2-(5-(cyclopropylethynyl)pyridin-2-yl)-2-fluorovinyl)-2-fluorophenyl)-N,N,5-trimethyl-2-thia-4-azabicyclo[4.1.0]hept-3-ene-1-carboxamide], the IC50 at BACE1 [1] came to 0.00849 µM; at BACE1 [2] (setting [3]), 0.223 µM; at BACE2, 0.0615 µM; on Cathepsin D (CatD) it was 138 µM.

With `C#Cc1ccc(/C(F)=C/c2ccc(F)c([C@@]3(C)N=C(N)S[C@@]4(C(=O)N(C)C)C[C@H]43)c2)nc1` [Example 110, (1S,5S,6S)-3-amino-5-(5-((Z)-2-(5-ethynylpyridin-2-yl)-2-fluorovinyl)-2-fluorophenyl)-N,N,5-trimethyl-2-thia-4-azabicyclo[4.1.0]hept-3-ene-1-carboxamide], the IC50 on BACE1 [1] turned out to be 0.00324 µM; on BACE1 [2] (setting [3]), 0.0127 µM; at BACE2, 0.0144 µM; on Cathepsin D (CatD) it was 403 µM.

As for `C[C@]1(c2cc(/C=C(\F)c3ccc(Cl)cn3)ccc2F)N=C(N)S[C@@]2(CC#N)C[C@H]21` [Example 114, 2-((1R,5S,6S)-3-amino-5-(5-((Z)-2-(5-chloropyridin-2-yl)-2-fluorovinyl)-2-fluorophenyl)-5-methyl-2-thia-4-azabicyclo[4.1.0]hept-3-en-1-yl)acetonitrile], the IC50 on BACE1 [1] stood at 0.021 µM; on BACE1 [2] (setting [3]), 0.446 µM; at BACE2, 0.0555 µM; at Cathepsin D (CatD) it was 668 µM.

For the compound `CC1CCN1C(=O)[C@]12C[C@H]1[C@@](C)(c1cc(/C=C(\F)c3ccc(Cl)cn3)ccc1F)N=C(N)S2` (stereo partly drawn) [Example 116, ((1S,5S,6S)-3-amino-5-(5-((Z)-2-(5-chloropyridin-2-yl)-2-fluorovinyl)-2-fluorophenyl)-5-methyl-2-thia-4-azabicyclo[4.1.0]hept-3-en-1-yl)(2-methylazetidin-1-yl)methanone], the IC50 came to 0.00623 µM at BACE1 [1], 0.00929 µM at BACE1 [2] (setting [3]), 0.0119 µM at BACE2 and 107 µM on Cathepsin D (CatD).

On to `C[C@]1(c2cc(/C=C(\F)c3ccc(Cl)cn3)ccc2F)N=C(N)S[C@@]2(C(=O)Nc3ccccc3)C[C@H]21` [Example 118, (1S,5S,6S)-3-amino-5-(5-((Z)-2-(5-chloropyridin-2-yl)-2-fluorovinyl)-2-fluorophenyl)-5-methyl-N-phenyl-2-thia-4-azabicyclo[4.1.0]hept-3-ene-1-carboxamide], for which the IC50 on BACE1 [1] was 0.0299 µM; on BACE1 [2] (setting [3]), 0.291 µM; on BACE2 it was 0.047 µM; at Cathepsin D (CatD), 13.4 µM.

As to `C[C@@H]1CCN1C(=O)[C@]12C[C@H]1[C@@](C)(c1cc(/C=C(\F)c3ccc(Cl)cn3)ccc1F)N=C(N)S2` [Example 120, ((1S,5S,6S)-3-amino-5-(5-((Z)-2-(5-chloropyridin-2-yl)-2-fluorovinyl)-2-fluorophenyl)-5-methyl-2-thia-4-azabicyclo[4.1.0]hept-3-en-1-yl)((R)-2-methylazetidin-1-yl)methanone], the IC50 was found to be 0.00275 µM at BACE1 [1], 0.0267 µM at BACE1 [2] (setting [3]), 0.0108 µM on BACE2 and 132 µM on Cathepsin D (CatD).

Turning to `C[C@]1(c2cc(/C=C(\F)c3ccc(C#N)cn3)ccc2F)N=C(N)S[C@@]2(C(=O)N3Cc4ccccc4C3)C[C@H]21` [Example 129, 6-((Z)-2-(3-((1S,5S,6S)-3-amino-1-(isoindoline-2-carbonyl)-5-methyl-2-thia-4-azabicyclo[4.1.0]hept-3-en-5-yl)-4-fluorophenyl)-1-fluorovinyl)nicotinonitrile bis(2,2,2-trifluoroacetate)], the IC50 was determined as 0.00117 µM at BACE1 [1], 0.0165 µM at BACE1 [2] (setting [3]), 0.0311 µM at BACE2 and 133 µM at Cathepsin D (CatD).

With `COC(=O)[C@H]1CCCN1C(=O)[C@]12C[C@H]1[C@@](C)(c1cc(/C=C(\F)c3ccc(C#N)cn3)ccc1F)N=C(N)S2` [Example 130, (R)-methyl 1-((1S,5S,6S)-3-amino-5-(5-((Z)-2-(5-cyanopyridin-2-yl)-2-fluorovinyl)-2-fluorophenyl)-5-methyl-2-thia-4-azabicyclo[4.1.0]hept-3-ene-1-carbonyl)pyrrolidine-2-carboxylate bis(2,2,2-trifluoroacetate)], the IC50 on BACE1 [1] is 0.0034 µM; on BACE1 [2] (setting [3]), 0.00747 µM; on BACE2, 0.121 µM; at Cathepsin D (CatD), 120 µM.

With `CN(C)C(=O)[C@]12C[C@H]1[C@@](C)(c1cc(/C=C(\F)c3cnc(C#CC4CC4)cn3)ccc1F)N=C(N)S2` [Example 159, (1S,5S,6S)-3-amino-5-(5-((Z)-2-(5-(cyclopropylethynyl)pyrazin-2-yl)-2-fluorovinyl)-2-fluorophenyl)-N,N,5-trimethyl-2-thia-4-azabicyclo[4.1.0]hept-3-ene-1-carboxamide], the IC50 on BACE1 [1] was determined as 0.000856 µM; at BACE1 [2] it was 0.0166 µM; on Cathepsin D (CatD) it was 71.9 µM.
